Assay results as given in patent US12570643B2, “3-aryloxy-3-five-membered heteroaryl propylamine compound, and crystal form and use thereof” (Shanghai Leado Pharmatech Co. Ltd., priority 2019, dated 2026).

Legend:
[1] = test system: HepG2 cells; test: Hepatocyte toxicity (CCK-8 cytotoxicity test); type: cell-based; conditions: Homo sapiens, 72 hours, read-out: hepatotoxicity (IC50)
Protocol: HepG-2 and SH-SY5Y cells were prepared and placed in 10 cm dish and incubated at 37° C., 5% CO2 in a cell incubator; the cells were digested with trypsinize, resuspended and then counted. Based on a system of 100 μl/well, 8000 cells were transferred to a 96-well plate. The cells were incubated in a 37° C., 5% CO2 cell incubator for 24 hours; a gradient concentration system of compound I-1 (prepared in Example 2) was prepared, 2 times diluted, the system was 100 μl/well. The supernatant in the 96-well plate cell culture system on the first day was removed, and a fresh prepared drug concentration system was added to the corresponding culture plate wells culturing cells (set up duplicate wells). […] After completion of the culture, the supernatant was removed from the cell culture system of the 96-well plate, 100 μl of detection solution (medium containing 10% CCK-8) was add to each well, and incubated in a cell incubator at 37° C. and 5% CO2 for 1 hour, then taken it out and measured the absorbance at 450 nm with a microplate reader. Data were processed, cytotoxicity was calculated, and IC50 was calculated by GraphPad Prism. […]
A (dosing): absorbance of the well having cells, CCK-8 solution and drug solution
A (blank): absorbance of the well having medium and CCK-8 solution, without cells.
A (0 dosing): absorbance of the well having cells and CCK-8 solution, without drug solution […]

[2] = biological target: T1, TRPA1 (Mus musculus, UniProt Q8BLA8); test: TRPA1 inhibitory activity, IonWorks Barracuda (IWB) automatic patch clamp detection; type: cell-based; conditions: automatic patch clamp
T1 construct: expressed in transfected cells; host or cells: HEK293 cells stably expressing TRPA1
Protocol: In this example, the compounds prepared in some examples of the present invention (shown in Table 1) were tested for their inhibitory activity on the transient receptor potential channel protein TRPA1. Wherein, compound of formula A (WO2010075353) was used as positive control: […]
Test method by using IonWorks Barracuda (IWB) automatic patch clamp detection: HEK293 cells stably expressing TRPA1 were placed in a 37° C., 5% CO2 incubator and incubated with DMEM medium containing 15 μg/mL Blasticidin S HCl, 200 μg/mL Hygromycin B and 10% FBS serum in a T175 culture flask. When the cell density grew to […], the culture medium was removed, the cells were washed with calcium and magnesium free phosphate buffered saline (PBS), and 3 mL of Trypsin was added and digested for 2 minutes, and 7 mL of culture medium was added to terminate the digestion. […]
Data recording and current amplitude measurement and export were completed by IWB Software (version 2.5.3, Molecular Devices Corporation, Union City, CA). The statistics of the well with a sealing impedance lower than 20 M Ω were not recorded. The original current data was corrected by software, the TRPA1 current amplitude was measured in +100 mV. […] The dose-effect curve and IC50 of compounds were fitted and calculated by GraphPad Prism 5.02 (GraphPad Software, San Diego, CA).

[3] = test system: acetic acid writhing pain model in mice; test: Acetic acid writhing pain model in mice; type: in vivo, ICR mice
Protocol: ICR mice, male, 22-25 g, were fasted for food 2 h before administration, but can have water. All ICR mice were weighed and randomly grouped with the number of animals>10 per group. […] The mice were administered via intragastric administration according to the weight of mice. 1.5% acetic acid solution (0.1 ml/10 g) was intraperitoneally injected at 1 hour after administration, and the number of times of visceral pain in each group within 30 minutes was observed, the mice were counted once when the abdomen was concave, the trunk and hind legs were extended and the hips were elevated, and the number of times of these phenomena occurred within 30 min was finally counted.

T1 sequence (Q8BLA8 whole entry): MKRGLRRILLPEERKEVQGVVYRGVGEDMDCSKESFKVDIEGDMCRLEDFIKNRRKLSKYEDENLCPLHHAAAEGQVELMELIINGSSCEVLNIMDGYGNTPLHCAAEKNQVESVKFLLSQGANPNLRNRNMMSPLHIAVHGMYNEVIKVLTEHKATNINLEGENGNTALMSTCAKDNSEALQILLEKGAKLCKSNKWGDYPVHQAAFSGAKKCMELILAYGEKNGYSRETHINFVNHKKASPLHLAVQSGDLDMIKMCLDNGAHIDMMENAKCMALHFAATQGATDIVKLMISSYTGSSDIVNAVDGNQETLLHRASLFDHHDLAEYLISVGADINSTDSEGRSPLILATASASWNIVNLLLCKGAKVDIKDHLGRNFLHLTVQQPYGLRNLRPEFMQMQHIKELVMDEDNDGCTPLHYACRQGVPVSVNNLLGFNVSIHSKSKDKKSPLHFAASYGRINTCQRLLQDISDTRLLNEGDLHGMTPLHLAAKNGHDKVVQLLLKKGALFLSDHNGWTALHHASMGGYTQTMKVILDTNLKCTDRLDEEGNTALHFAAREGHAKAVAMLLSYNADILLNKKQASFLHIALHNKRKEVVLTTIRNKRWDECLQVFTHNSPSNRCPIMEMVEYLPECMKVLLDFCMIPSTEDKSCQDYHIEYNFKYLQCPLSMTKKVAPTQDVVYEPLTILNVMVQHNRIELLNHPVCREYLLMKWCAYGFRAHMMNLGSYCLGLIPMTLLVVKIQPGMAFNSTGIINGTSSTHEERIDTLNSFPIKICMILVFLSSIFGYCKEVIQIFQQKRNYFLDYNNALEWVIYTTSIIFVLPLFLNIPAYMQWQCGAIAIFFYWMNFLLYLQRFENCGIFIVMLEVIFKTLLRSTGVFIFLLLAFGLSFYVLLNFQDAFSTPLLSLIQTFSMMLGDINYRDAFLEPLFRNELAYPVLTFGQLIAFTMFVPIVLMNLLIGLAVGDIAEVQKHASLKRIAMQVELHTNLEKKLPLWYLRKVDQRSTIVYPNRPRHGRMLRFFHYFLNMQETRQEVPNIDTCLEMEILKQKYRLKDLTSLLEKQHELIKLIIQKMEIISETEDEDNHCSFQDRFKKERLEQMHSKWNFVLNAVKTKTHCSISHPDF

activity ratio (IC50 of compound C2/IC50 of compound I-1) [2]: about 6.3
SMILES: CNCC[C@@H](Oc1cccc2ccoc12)c1cccs1 [Compound I-1, (R)-3-(benzofuran-7-yloxy)-N-methyl-3-(thiophen-2-yl)propan-1-amine]
IC50 [1]: ~114 µM
number of visceral pains lower than normal saline control group ([3]; 5 mg/kg intragastric): 50%
ED50 ([3]; Mus musculus, po, intragastric, mice, read-out: half effective dose (ED50) in acetic acid writhing model): < 5 mg/kg
